PubChem BioAssay AID330 (DTP/NCI, 2004)
“And” between values parts separate entries of the source, which are not always exact repeats. Identical values can stand only once. Toxic doses and inconclusive results are not listed. The calls were made as follows: active = survival T/C of 150% or more; inactive = T/C below 125% in these data.

Tested on: P388 leukemia ip, CD2F1 mice, survival T/C
Test: NCI In Vivo Anticancer Drug Screen. Data for tumor model P388 Leukemia (intraperitoneal) in CD2F1 (CDF1) mice
Conditions: endpoint: median survival time, higher = longer survival
In short: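 Mice carrying the transplanted tumor received test compound or vehicle. Survival was recorded in each group, and the value is the treated-group measurement divided by that of the vehicle-treated control group.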

[1] = dose: 50.0 mg/kg/injection, schedule: Q01DX005 (ip), vehicle: Klucel (hydroxypropylcellulose) (HPC)
[2] = dose: 100.0 mg/kg/injection, schedule: Q01DX005 (ip), vehicle: Klucel (hydroxypropylcellulose) (HPC)
[3] = dose: 50.0 mg/kg/injection, schedule: Q01DX005 (ip), vehicle: saline with Tween-80
[4] = dose: 100.0 mg/kg/injection, schedule: Q01DX005 (ip), vehicle: saline with Tween-80
[5] = dose: 200.0 mg/kg/injection, schedule: Q01DX005 (ip), vehicle: saline with Tween-80
[6] = dose: 200.0 mg/kg/injection, schedule: Q01DX005 (ip), vehicle: Klucel (hydroxypropylcellulose) (HPC)
[7] = dose: 60.0 mg/kg/injection, schedule: Q01DX005 (ip), vehicle: saline with Tween-80
[8] = dose: 120.0 mg/kg/injection, schedule: Q01DX005 (ip), vehicle: saline with Tween-80
[9] = dose: 240.0 mg/kg/injection, schedule: Q01DX005 (ip), vehicle: saline with Tween-80

Measured: T/C

OCC1OC(n2cnc3cncnc32)C(O)C1O (stereo not given)
inactive: dose: 6.25 mg/kg/injection, schedule: Q01DX001 (ip), vehicle: saline 111 % of control | dose: 6.25 mg/kg/injection, schedule: Q04DX003 (ip), vehicle: saline 99 % of control | dose: 12.5 mg/kg/injection, schedule: Q01DX001 (ip), vehicle: saline 111 % of control | dose: 12.5 mg/kg/injection, schedule: Q04DX003 (ip), vehicle: saline 100 % of control | dose: 25.0 mg/kg/injection, schedule: Q01DX001 (ip), vehicle: saline 114 % of control | dose: 25.0 mg/kg/injection, schedule: Q04DX003 (ip), vehicle: saline 99 % of control | dose: 50.0 mg/kg/injection, schedule: Q04DX003 (ip), vehicle: saline 96 % of control and 97 % of control | dose: 100.0 mg/kg/injection, schedule: Q04DX003 (ip), vehicle: saline 100 % of control | dose: 200.0 mg/kg/injection, schedule: Q04DX003 (ip), vehicle: saline 104 % of control | dose: 400.0 mg/kg/injection, schedule: Q04DX003 (ip), vehicle: saline 104 % of control

CC1N[P+]2(OC1=O)Oc1ccccc1N2C (stereo not given)
inactive: dose: 87.5 mg/kg/injection, schedule: Q04DX002 (ip), vehicle: Klucel (hydroxypropylcellulose) (HPC) 102 % of control | dose: 175.0 mg/kg/injection, schedule: Q04DX002 (ip), vehicle: Klucel (hydroxypropylcellulose) (HPC) 100 % of control | dose: 350.0 mg/kg/injection, schedule: Q04DX002 (ip), vehicle: Klucel (hydroxypropylcellulose) (HPC) 100 % of control

CC1=C(O)C(=O)C=C2C1=CC=C1[C@@]2(C)CCC2(C)[C@@H]3C[C@@H](C)C(=O)C[C@]3(C)CC[C@]12C (stereo not given in full)
inactive: dose: 12.5 mg/kg/injection, schedule: Q01DX005 (ip), vehicle: Klucel (hydroxypropylcellulose) (HPC) 109 % of control | dose: 25.0 mg/kg/injection, schedule: Q01DX005 (ip), vehicle: Klucel (hydroxypropylcellulose) (HPC) 101 % of control | [1] 90 % of control | [2] 97 % of control | dose: 260.0 mg/kg/injection, schedule: Q01DX005 (ip), vehicle: Klucel (hydroxypropylcellulose) (HPC) 97 % of control

CC(=O)NCc1cc(C)c(CCl)cc1CCl
inactive: dose: 3.13 mg/kg/injection, schedule: Q01DX009 (ip), vehicle: distilled water + Tween-80 103 % of control | dose: 6.25 mg/kg/injection, schedule: Q01DX009 (ip), vehicle: distilled water + Tween-80 114 % of control and 117 % of control | dose: 12.5 mg/kg/injection, schedule: Q01DX009 (ip), vehicle: distilled water + Tween-80 122 % of control and 123 % of control | dose: 25.0 mg/kg/injection, schedule: Q01DX009 (ip), vehicle: distilled water + Tween-80 116 % of control

CCC1CCCN(CCc2c(C3(CO)CCC(CO)c4c(CCN5CCCC(CC)C5)c5ccccc5n43)[nH]c3ccccc23)C1 (stereo not given)
inactive: dose: 0.7 mg/kg/injection, schedule: Q01DX009 (ip), vehicle: saline with Tween-80 106 % of control | dose: 1.4 mg/kg/injection, schedule: Q01DX009 (ip), vehicle: saline with Tween-80 102 % of control | dose: 2.8 mg/kg/injection, schedule: Q01DX009 (ip), vehicle: saline with Tween-80 102 % of control

C=C1[C@H]2C[C@H]2[C@]2(C)C=C3OC(=O)C(C)=C3C[C@@H]12
inactive: dose: 5.5 mg/kg/injection, schedule: Q01DX005 (ip), vehicle: Klucel (hydroxypropylcellulose) (HPC) 94 % of control | dose: 11.0 mg/kg/injection, schedule: Q01DX005 (ip), vehicle: Klucel (hydroxypropylcellulose) (HPC) 98 % of control | dose: 22.0 mg/kg/injection, schedule: Q01DX005 (ip), vehicle: Klucel (hydroxypropylcellulose) (HPC) 100 % of control | dose: 44.0 mg/kg/injection, schedule: Q01DX005 (ip), vehicle: Klucel (hydroxypropylcellulose) (HPC) 94 % of control | dose: 80.0 mg/kg/injection, schedule: Q01DX005 (ip), vehicle: Klucel (hydroxypropylcellulose) (HPC) 91 % of control

CCOC(=O)N(NC(=O)Nc1ccccc1)C(c1ccccc1)c1ccccc1
inactive: dose: 75.0 mg/kg/injection, schedule: Q01DX009 (ip), vehicle: saline with Tween-80 94 % of control | dose: 150.0 mg/kg/injection, schedule: Q01DX009 (ip), vehicle: saline with Tween-80 94 % of control | dose: 300.0 mg/kg/injection, schedule: Q01DX009 (ip), vehicle: saline with Tween-80 98 % of control

COc1c2c(cc3c1-c1c(cc4c(c1OC)OCO4)CC(C)C(C)C3)OCO2 (stereo not given)
inactive: dose: 13.75 mg/kg/injection, schedule: Q01DX005 (ip), vehicle: Klucel (hydroxypropylcellulose) (HPC) 95 % of control | dose: 27.5 mg/kg/injection, schedule: Q01DX005 (ip), vehicle: Klucel (hydroxypropylcellulose) (HPC) 98 % of control | dose: 55.0 mg/kg/injection, schedule: Q01DX005 (ip), vehicle: Klucel (hydroxypropylcellulose) (HPC) 98 % of control | dose: 110.0 mg/kg/injection, schedule: Q01DX005 (ip), vehicle: Klucel (hydroxypropylcellulose) (HPC) 90 % of control

CC(=O)OCC1OC(n2ccc3c(=O)n(C)c(=O)[nH]c32)C(OC(C)=O)C(OC(C)=O)C1OC(C)=O (stereo not given)
inactive: dose: 100.0 mg/kg/injection, schedule: Q01DX001 (ip), vehicle: saline with Tween-80 92 % of control | dose: 200.0 mg/kg/injection, schedule: Q01DX001 (ip), vehicle: saline with Tween-80 105 % of control | dose: 400.0 mg/kg/injection, schedule: Q01DX001 (ip), vehicle: saline with Tween-80 108 % of control

Cc1cc(N(CCO)CCO)c2ccc3ccccc3c2n1
inactive: dose: 50.0 mg/kg/injection, schedule: Q01DX009 (ip), vehicle: saline with Tween-80 101 % of control | dose: 100.0 mg/kg/injection, schedule: Q01DX009 (ip), vehicle: saline with Tween-80 108 % of control | dose: 200.0 mg/kg/injection, schedule: Q01DX009 (ip), vehicle: saline with Tween-80 97 % of control

OCCSC(=S)Nc1ccc(Cl)c(Cl)c1
inactive: dose: 50.0 mg/kg/injection, schedule: Q01DX009 (ip), vehicle: saline 96 % of control | dose: 100.0 mg/kg/injection, schedule: Q01DX009 (ip), vehicle: saline 103 % of control

COc1cc(C(=O)Oc2c(OC)cc(C(=O)c3cc4c(cc3C)OCO4)cc2OC)cc(OC)c1OC
inactive: [1] 88 % of control | [2] 88 % of control

O=C1c2ccccc2C(=O)C2C(=O)c3ccccc3C(=O)C12 (stereo not given)
inactive: [3] 95 % of control | [4] 95 % of control | [5] 103 % of control

COC(=O)/C=C/CCOC1CCCCO1 (stereo not given)
inactive: dose: 50.0 mg/kg/injection, schedule: Q01DX009 (ip), vehicle: other 108 % of control | dose: 100.0 mg/kg/injection, schedule: Q01DX009 (ip), vehicle: other 112 % of control | dose: 200.0 mg/kg/injection, schedule: Q01DX009 (ip), vehicle: other 107 % of control

O=c1oc2c(cc1-c1ccccc1)CCCC2
inactive: [1] 102 % of control | [2] 104 % of control | [6] 103 % of control

[N-]=[N+]=CC(=O)C1OC1c1ccc(Br)cc1 (stereo not given)
inactive: dose: 25.0 mg/kg/injection, schedule: Q01DX005 (ip), vehicle: saline with Tween-80 98 % of control | [3] 93 % of control | [4] 91 % of control | [5] 95 % of control

OC(C1CCCCC1)C1CCCCC1Cl (stereo not given)
inactive: [3] 102 % of control | [4] 102 % of control | [5] 102 % of control

C=C1c2c(O)c(C)c(O)c(C(C)=O)c2OC12CC(=O)C(C(=O)O)=C2C (stereo not given)
inactive: dose: 12.5 mg/kg/injection, schedule: Q01DX009 (ip), vehicle: gum acacia 105 % of control and 112 % of control | dose: 25.0 mg/kg/injection, schedule: Q01DX009 (ip), vehicle: gum acacia 108 % of control and 109 % of control | dose: 50.0 mg/kg/injection, schedule: Q01DX009 (ip), vehicle: gum acacia 108 % of control | dose: 100.0 mg/kg/injection, schedule: Q01DX009 (ip), vehicle: gum acacia 108 % of control and 110 % of control | dose: 200.0 mg/kg/injection, schedule: Q01DX009 (ip), vehicle: gum acacia 108 % of control and 110 % of control

Cc1ccc(C(O)(c2ccc(C)cc2)C(C)(C)O)cc1
inactive: [7] 98 % of control | [8] 100 % of control | [9] 103 % of control

CC(C)C(NC(=O)C(=O)c1c[nH]c2ccc(Cl)cc12)C(=O)O (stereo not given)
inactive: [7] 100 % of control | [8] 91 % of control | [9] 90 % of control

Cc1nc2c(cnn2C)c(=O)n1-c1ccccc1Cl
inactive: [1] 103 % of control | [2] 95 % of control | [6] 98 % of control

CCOC(=O)CNC(=O)OCCS(=O)CCOC(=O)NCC(=O)OCC
inactive: dose: 100.0 mg/kg/injection, schedule: Q01DX001 (ip), vehicle: saline 98 % of control | dose: 200.0 mg/kg/injection, schedule: Q01DX001 (ip), vehicle: saline 93 % of control | dose: 400.0 mg/kg/injection, schedule: Q01DX001 (ip), vehicle: saline 101 % of control
